Data from ChEMBL document CHEMBL4390641, “Design, synthesis and biological evaluation of amide-pyridine derivatives as novel dual-target (SE, CYP51) antifungal inhibitors” (2019).
Calls of active or inactive are those of the source. No cut-off for these calls is given here.

What was measured:
Candida albicans [1] = experiment: Antifungal activity against Candida albicans ATCC 10231 assessed as inhibition of microbial growth by NCCLS protocol based method; format: functional
Nakaseomyces glabratus = experiment: Antifungal activity against Candida glabrata ATCC 0001 assessed as inhibition of microbial growth by NCCLS protocol based method; format: functional
Pichia kudriavzevii = experiment: Antifungal activity against Candida krusei ATCC 6258 assessed as inhibition of microbial growth by NCCLS protocol based method; format: functional
Candida tropicalis = experiment: Antifungal activity against Candida tropicalis ATCC 1369 assessed as inhibition of microbial growth by NCCLS protocol based method; format: functional
Aspergillus fumigatus = experiment: Antifungal activity against Aspergillus fumigatus KM8001 assessed as inhibition of microbial growth by NCCLS protocol based method; format: functional
Candida albicans [2] = experiment: Antifungal activity against fluconazole-resistant Candida albicans 100 assessed as inhibition of microbial growth by NCCLS protocol based method; format: functional
Candida albicans [3] = experiment: Antifungal activity against fluconazole-resistant Candida albicans 103 assessed as inhibition of microbial growth by NCCLS protocol based method; format: functional
Candida albicans [4] = experiment: Antifungal activity against Candida albicans assessed as inhibition of microbial growth at 25 to 250 nM/mL by polarizing microscopy; format: functional, organism-based
Candida albicans [5] = experiment: Antifungal activity against Candida albicans assessed as reduction in cell division at 25 to 250 nM/mL by polarizing microscopy; format: functional, organism-based
Candida albicans [6] = experiment: Antifungal activity against Candida albicans assessed as induction of microbial cell killing at 25 to 250 nM/mL by polarizing microscopy; format: functional, organism-based
Candida albicans [7] = experiment: Antifungal activity against Candida albicans assessed as reduction in cell volume at 25 to 250 nM/mL by polarizing microscopy; format: functional, organism-based
Candida albicans [8] = experiment: Antifungal activity against Candida albicans assessed as reduction in proportion of microbes at cell division phase at 25 to 250 nM/mL by polarizing microscopy; format: functional, organism-based
Candida albicans [9] = experiment: Antifungal activity against Candida albicans assessed as inhibition of microbial growth at 2.5 nM/mL by polarizing microscopy; format: functional, organism-based
Candida albicans [10] = experiment: Antifungal activity against Candida albicans assessed as induction of cell fracture at 2.5 nM/mL by polarizing microscopy; format: functional, organism-based
Candida albicans [11] = experiment: Inhibition of SE/CYP51 in Candida albicans ATCC SC5314 assessed as effect on sterol composition by measuring ergosterol level at 16 ug/ml incubated for 90 mins by HPLC analysis (reference value: 64.2%); design: scale not given: the % may be the effect or the level left
Candida albicans [12] = experiment: Inhibition of SE/CYP51 in Candida albicans ATCC SC5314 assessed as effect on sterol composition by measuring Eburicol level at 16 ug/ml incubated for 90 mins by HPLC analysis (reference value: 8.3%); design: scale not given: the % may be the effect or the level left
Candida albicans [13] = experiment: Inhibition of SE/CYP51 in Candida albicans ATCC SC5314 assessed as effect on sterol composition by measuring Lanosterol level at 16 ug/ml incubated for 90 mins by HPLC analysis (reference value: 10.99%); design: scale not given: the % may be the effect or the level left
Heme [14] = experiment: Binding affinity to heme by UV-Visible spectroscopy
Candida albicans [15] = experiment: Inhibition of SE/CYP51 in Candida albicans ATCC SC5314 assessed as effect on sterol composition by measuring Squalene level at 16 ug/ml incubated for 90 mins by HPLC analysis; design: scale not given: the % may be the effect or the level left
Heme [16] = experiment: Binding affinity to heme by fluorescence spectrum analysis
Candida albicans [17] = experiment: Inhibition of SE/CYP51 in Candida albicans ATCC SC5314 assessed as effect on sterol composition by measuring Unidentified sterol level at 16 ug/ml incubated for 90 mins by HPLC analysis (reference value: 16.51%); design: scale not given: the % may be the effect or the level left

Structure (SMILES)	MIC (Candida albicans [1])	MIC (Nakaseomyces glabratus)	MIC (Pichia kudriavzevii)	MIC (Candida tropicalis)	MIC (Aspergillus fumigatus)	further results
O=C(CNC(=O)c1ccc2ccccc2n1)NCc1cccnc1	0.5 µg/mL	2 µg/mL	0.5 µg/mL	1 µg/mL	2 µg/mL	–
CC(C)[C@H](NC(=O)c1ccc2ccccc2c1)C(=O)NCc1cccnc1	8 µg/mL	2 µg/mL	4 µg/mL	2 µg/mL	> 16 µg/mL	–
O=C(CNC(=O)c1ccc2ccccc2c1)NCc1ccncc1	0.25 µg/mL	0.25 µg/mL	1 µg/mL	0.5 µg/mL	2 µg/mL	–
C[C@H](NC(=O)c1ccc2ccccc2n1)C(=O)NCc1cccnc1	1 µg/mL	0.25 µg/mL	2 µg/mL	0.5 µg/mL	8 µg/mL	–
C[C@H](NC(=O)c1ccc2ccccc2c1)C(=O)NCc1ccncc1	0.25 µg/mL	1 µg/mL	0.5 µg/mL	0.25 µg/mL	2 µg/mL	–
O=C(N[C@H](C(=O)NCc1cccnc1)c1ccccc1)c1ccc2ccccc2c1	> 16 µg/mL	> 16 µg/mL	8 µg/mL	8 µg/mL	> 16 µg/mL	–
O=C(N[C@H](C(=O)NCc1cccnc1)c1ccccc1)c1ccc2ccccc2n1	8 µg/mL	4 µg/mL	> 16 µg/mL	2 µg/mL	> 16 µg/mL	–
O=C(CNC(=O)c1ccc2ccccc2n1)NCc1ccncc1	0.25 µg/mL	0.5 µg/mL	0.5 µg/mL	0.125 µg/mL	2 µg/mL	MIC (Candida albicans [2]): 2 µg/mL; MIC (Candida albicans [3]): 1 µg/mL; growth inhibition (GI) (Candida albicans [4]): Active; Activity (Candida albicans [5]): Active; Activity (Candida albicans [6]): Active; Activity (Candida albicans [7]): Active; Activity (Candida albicans [8]): Active; growth inhibition (GI) (Candida albicans [9]): Active; Activity (Candida albicans [10]): Active
C[C@H](NC(=O)c1ccc2ccccc2c1)C(=O)NCc1cccnc1	0.5 µg/mL	1 µg/mL	0.5 µg/mL	2 µg/mL	4 µg/mL	–
O=C(CNC(=O)c1ccc2ccccc2c1)NCc1cccnc1	1 µg/mL	4 µg/mL	2 µg/mL	0.5 µg/mL	> 16 µg/mL	–
O=C(N[C@H](C(=O)NCc1ccncc1)c1ccccc1)c1ccc2ccccc2n1	2 µg/mL	> 16 µg/mL	4 µg/mL	> 16 µg/mL	> 16 µg/mL	–
OC(Cn1cncn1)(Cn1cncn1)c1ccc(F)cc1F [FLUCONAZOLE]	0.5 µg/mL	1 µg/mL	0.5 µg/mL	2 µg/mL	> 16 µg/mL	MIC (Candida albicans [2]): > 16 µg/mL; MIC (Candida albicans [3]): > 16 µg/mL; growth inhibition (GI) (Candida albicans [4]): Active; Activity (Candida albicans [5]): Active; Activity (Candida albicans [6]): Active; Activity (Candida albicans [7]): Active; Activity (Candida albicans [8]): Active; growth inhibition (GI) (Candida albicans [9]): inactive; Activity (Candida albicans [11]): 11.3%; Activity (Candida albicans [12]): 39.5%; Activity (Candida albicans [13]): 49.2%; Activity (Heme [14]): Active
CC(C)[C@H](NC(=O)c1ccc2ccccc2c1)C(=O)NCc1ccncc1	2 µg/mL	0.5 µg/mL	0.5 µg/mL	2 µg/mL	8 µg/mL	–
C[C@H](NC(=O)c1ccc2ccccc2n1)C(=O)NCc1ccncc1	0.125 µg/mL	0.125 µg/mL	0.25 µg/mL	0.25 µg/mL	1 µg/mL	MIC (Candida albicans [2]): 0.5 µg/mL; MIC (Candida albicans [3]): 2 µg/mL; growth inhibition (GI) (Candida albicans [4]): Active; Activity (Candida albicans [5]): Active; Activity (Candida albicans [6]): Active; Activity (Candida albicans [7]): Active; Activity (Candida albicans [8]): Active; growth inhibition (GI) (Candida albicans [9]): Active; Activity (Candida albicans [10]): Active; Activity (Candida albicans [11]): 9.02%; Activity (Candida albicans [12]): 27.4%; Activity (Candida albicans [13]): 50.1%; Activity (Candida albicans [15]): 13.4%; Activity (Heme [14]): Active; Activity (Heme [16]): Dose-dependent effect
O=C(N[C@H](C(=O)NCc1ccncc1)c1ccccc1)c1ccc2ccccc2c1	4 µg/mL	8 µg/mL	4 µg/mL	> 16 µg/mL	> 16 µg/mL	–
CN(C/C=C/C#CC(C)(C)C)Cc1cccc2ccccc12 [TERBINAFINE]	0.25 µg/mL	1 µg/mL	0.5 µg/mL	2 µg/mL	2 µg/mL	MIC (Candida albicans [2]): 8 µg/mL; MIC (Candida albicans [3]): 4 µg/mL; growth inhibition (GI) (Candida albicans [4]): Active; Activity (Candida albicans [5]): Active; Activity (Candida albicans [6]): Active; Activity (Candida albicans [7]): Active; Activity (Candida albicans [8]): Active; growth inhibition (GI) (Candida albicans [9]): inactive; Activity (Candida albicans [11]): 10.6%; Activity (Candida albicans [12]): 21.9%; Activity (Candida albicans [13]): 22.4%; Activity (Candida albicans [15]): 37.8%; Activity (Candida albicans [17]): 7.27%
CC(C)[C@H](NC(=O)c1ccc2ccccc2n1)C(=O)NCc1cccnc1	0.5 µg/mL	0.5 µg/mL	1 µg/mL	2 µg/mL	4 µg/mL	–
CC(C)[C@H](NC(=O)c1ccc2ccccc2n1)C(=O)NCc1ccncc1	0.5 µg/mL	2 µg/mL	0.5 µg/mL	4 µg/mL	> 16 µg/mL	–
